Assay results from ChEMBL document CHEMBL6127044, “An insight into G-quadruplexes: Identification and potential therapeutic targets in livestock viruses” (Eur J Med Chem, 2024).

What was measured:
Vero = test: Cytotoxicity against African green monkey Vero cells at 50 uM incubated for 24 hrs by MTT assay relative to control; format: toxicity, cell-based; conditions: chlorocebus sabaeus
[1] = system: Porcine epidemic diarrhea virus; test: Antiviral activity against Porcine epidemic diarrhea virus infected in African green monkey Vero E6 cells assessed as inhibition of viral replication at 25 uM relative to control; format: functional; conditions: Vero C1008

SMILES | Activity (Vero) | inhibition at 25 µM [1]
C[n+]1cc(NC(=O)c2ccc3ccc4ccc(C(=O)Nc5cc6ccccc6[n+](C)c5)nc4c3n2)cc2ccccc21 | 80% | –
NCCOc1cc(C(=O)Nc2cc(OCCN)c3ccccc3n2)nc(C(=O)Nc2cc(OCCN)c3ccccc3n2)c1 [PYRIDOSTATIN] | 80% | 99%
C[n+]1ccc(-c2c3nc(c(-c4cc[n+](C)cc4)c4ccc([nH]4)c(-c4cc[n+](C)cc4)c4nc(c(-c5cc[n+](C)cc5)c5ccc2[nH]5)C=C4)C=C3)cc1 [TMPYP4 CHLORIDE] | – | 99%
